For one compound, inhibition and Emax results are on record in ChEMBL document CHEMBL3286276, “Novel estrogen receptor (ER) modulators containing various hydrophobic bent-core structures” (Bioorg Med Chem, 2014).

The target of test [1] is T1, Estrogen receptor (Homo sapiens) (UniProt P03372).
T1 sequence (whole entry): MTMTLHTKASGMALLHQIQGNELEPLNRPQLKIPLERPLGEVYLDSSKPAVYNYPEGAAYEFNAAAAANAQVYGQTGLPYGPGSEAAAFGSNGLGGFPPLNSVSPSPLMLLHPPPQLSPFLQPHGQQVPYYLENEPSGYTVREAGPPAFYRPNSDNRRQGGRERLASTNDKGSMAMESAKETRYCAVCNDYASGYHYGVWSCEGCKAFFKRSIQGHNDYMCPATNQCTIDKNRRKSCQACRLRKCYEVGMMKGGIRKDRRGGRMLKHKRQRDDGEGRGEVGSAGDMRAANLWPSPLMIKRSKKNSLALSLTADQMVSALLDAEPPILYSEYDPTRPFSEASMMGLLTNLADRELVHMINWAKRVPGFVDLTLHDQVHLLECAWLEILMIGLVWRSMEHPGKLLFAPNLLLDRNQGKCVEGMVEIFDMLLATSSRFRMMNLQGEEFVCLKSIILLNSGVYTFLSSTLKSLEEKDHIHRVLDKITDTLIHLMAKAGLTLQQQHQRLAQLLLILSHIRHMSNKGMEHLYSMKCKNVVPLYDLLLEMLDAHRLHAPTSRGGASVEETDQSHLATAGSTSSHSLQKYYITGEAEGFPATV
The test can be described thus: Displacement of [6,7-3H]17beta-estradiol from human recombinant estrogen receptor-alpha after 18 hrs by liquid scintillation counting analysis.

Test [2] addresses T1, Estrogen receptor (Homo sapiens). Briefly: Agonist activity at estrogen receptor in human MCF7 cells assessed as induction of cell proliferation at 1 x 10^-13 to 1 x 10^-5 M after 5 days by WST-8 assay relative to estradiol. The test is classed as cell-based. On the technique in general: Tetrazolium assays rely on reduction of a dye to a coloured formazan, in cell work by metabolically active cells.

Turning to `CN(C)CCOc1ccc(C23CC4CC(CC(c5ccc(O)cc5)(C4)C2)C3)cc1`, in test [1], the inhibition result was “Dose-dependent effect”. The Emax in test [2] was 17%.
